From article PMC2929362 (Bioorganic & medicinal chemistry, 2009)
“Also recorded” adds a separate entry of the source.

Experiments:
human SIRT3 = target: T1, human SIRT3 (Homo sapiens, UniProt Q9NTG7); assay: Inhibition of a panel of human sirtuin homologues: SIRT3; assay type: biochemical
T1 sequence (Q9NTG7 1-399): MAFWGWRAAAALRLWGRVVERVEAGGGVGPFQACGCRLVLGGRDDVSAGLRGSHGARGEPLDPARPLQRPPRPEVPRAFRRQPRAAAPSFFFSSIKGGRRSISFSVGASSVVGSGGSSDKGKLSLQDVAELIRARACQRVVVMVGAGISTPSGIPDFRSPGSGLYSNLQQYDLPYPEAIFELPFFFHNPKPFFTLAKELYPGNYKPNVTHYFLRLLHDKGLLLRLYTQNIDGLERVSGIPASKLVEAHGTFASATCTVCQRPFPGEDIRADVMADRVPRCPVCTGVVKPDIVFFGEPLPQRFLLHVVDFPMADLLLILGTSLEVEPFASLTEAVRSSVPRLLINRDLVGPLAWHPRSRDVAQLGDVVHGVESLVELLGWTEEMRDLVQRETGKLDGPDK

Hst2 [1] = target: T2, Hst2 (Saccharomyces cerevisiae, UniProt P53686); assay: biochemical; assay type: biochemical; conditions: for activity at 50 µM: read-out: % Activity at 50 μM; for activity at 500 µM: read-out: % Activity at 500 μM; for inhibition of Hst2 deacetylation by scaffold analogs (in words): SAR discussion
human SIRT2 = target: T3, human SIRT2 (Homo sapiens, UniProt Q8IXJ6); assay: Inhibition of a panel of human sirtuin homologues: SIRT2; assay type: biochemical
T3 sequence (Q8IXJ6 1-352 isoform Q8IXJ6-2): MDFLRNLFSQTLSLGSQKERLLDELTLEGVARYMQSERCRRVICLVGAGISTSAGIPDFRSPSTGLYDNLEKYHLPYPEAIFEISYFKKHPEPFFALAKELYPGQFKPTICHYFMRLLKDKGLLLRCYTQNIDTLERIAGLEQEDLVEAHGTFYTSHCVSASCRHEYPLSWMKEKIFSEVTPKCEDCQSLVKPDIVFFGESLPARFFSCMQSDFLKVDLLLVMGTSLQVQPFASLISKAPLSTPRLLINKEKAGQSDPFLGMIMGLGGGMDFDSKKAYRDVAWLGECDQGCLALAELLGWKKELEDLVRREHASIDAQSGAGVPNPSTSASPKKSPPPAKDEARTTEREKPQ

Hst2 [2] = target: T2, Hst2; assay: Competition assay; assay type: biochemical; conditions: for α: mixed inhibition model
Hst2 [3] = target: T2, Hst2; assay: Reversibility assay; assay type: biochemical; conditions: Hst2 incubated with 10× IC50 of inhibitor, then 100-fold dilution
[4] = target: T4, full length human SIRT1 (FL SIRT1) (Homo sapiens, UniProt Q96EB6); assay: Fluorigenic
T4 sequence (Q96EB6 1-747): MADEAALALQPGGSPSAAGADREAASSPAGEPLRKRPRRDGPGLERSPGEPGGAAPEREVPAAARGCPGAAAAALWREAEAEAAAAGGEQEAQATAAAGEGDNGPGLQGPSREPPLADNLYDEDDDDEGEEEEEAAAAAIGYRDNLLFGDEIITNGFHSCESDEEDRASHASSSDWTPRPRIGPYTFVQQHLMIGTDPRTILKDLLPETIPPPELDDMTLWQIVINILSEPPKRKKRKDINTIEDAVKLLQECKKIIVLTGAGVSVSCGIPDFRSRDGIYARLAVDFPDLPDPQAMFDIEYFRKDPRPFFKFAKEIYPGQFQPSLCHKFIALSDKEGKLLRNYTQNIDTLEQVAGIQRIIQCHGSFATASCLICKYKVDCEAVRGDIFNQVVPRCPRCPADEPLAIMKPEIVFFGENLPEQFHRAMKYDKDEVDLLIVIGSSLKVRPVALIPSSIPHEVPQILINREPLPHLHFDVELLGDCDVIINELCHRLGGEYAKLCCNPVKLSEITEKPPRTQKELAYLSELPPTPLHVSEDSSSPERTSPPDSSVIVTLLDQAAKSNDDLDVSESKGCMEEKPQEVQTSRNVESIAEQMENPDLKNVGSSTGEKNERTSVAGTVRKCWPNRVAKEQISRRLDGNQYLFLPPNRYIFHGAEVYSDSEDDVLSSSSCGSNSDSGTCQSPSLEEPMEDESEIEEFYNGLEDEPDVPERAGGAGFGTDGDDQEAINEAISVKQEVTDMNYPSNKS

Hst2 [5] = target: T2, Hst2; assay: biochemical; conditions: for IC50 (Table 5, scaffold 12 analogs, Hst2): Hst2 fluorigenic assay

T2 sequence (P53686 1-294): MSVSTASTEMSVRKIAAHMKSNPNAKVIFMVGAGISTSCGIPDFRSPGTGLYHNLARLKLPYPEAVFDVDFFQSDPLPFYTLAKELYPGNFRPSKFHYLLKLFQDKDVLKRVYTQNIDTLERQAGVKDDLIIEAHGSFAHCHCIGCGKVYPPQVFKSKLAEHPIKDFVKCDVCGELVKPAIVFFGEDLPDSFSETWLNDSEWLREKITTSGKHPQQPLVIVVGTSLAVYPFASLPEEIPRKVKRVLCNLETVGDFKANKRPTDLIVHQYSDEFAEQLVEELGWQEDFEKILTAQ

With `CCc1ccc(OCCCC(=O)Oc2ccc3c(c2)oc(=O)c2ccccc23)cc1` [Compound 11, 4-(4-Ethyl-phenoxy)-butyric acid 6-oxo-6H-benzo[c]chromen-3-yl ester] the “inhibition of human SIRT3 (in words)” value (human SIRT3) was “but not SIRT3”, the activity at 50 µM (Hst2 [1]) was less than 1% and the activity at 500 µM (Hst2 [1]) was less than 1%. The “inhibition of human SIRT2 (in words)” value (human SIRT2) was “potent inhibitor of SIRT2”, the “Inhibition Mechanism” value (Hst2 [2]; substrate NAD+) was “fully non-competitive inhibition model; also recorded: NC (full)” and the “Inhibition Mechanism” value (Hst2 [2]; substrate acetyl-lysine) was “partial non-competitive inhibition model; also recorded: NC (partial)”. For the same compound, the “slope of progress curve, % of enzyme plus DMSO control” value (Hst2 [3]) was 82%.

In the case of `O=C(O)CCN1Cc2ccccc2C1=O` [Compound 12, 3-(1-Oxo-1,3-dihydro-isoindol-2-yl)-propionic acid], the “inhibition of human SIRT3 (in words)” value (human SIRT3) is reported as “only weak inhibitory activity”, the “inhibition of human SIRT2 (in words)” value (human SIRT2) is reported as “only weak inhibitory activity” and the “Inhibition Mechanism” value (Hst2 [2]; substrate NAD+) is reported as “fully non-competitive inhibition model; also recorded: NC (full)”. The “Inhibition Mechanism” value (Hst2 [2]; substrate acetyl-lysine) was “fully non-competitive inhibition model; also recorded: NC (full)” and the “slope of progress curve, % of enzyme plus DMSO control” value (Hst2 [3]) was 96%.

In the case of `Oc1c(Cl)cc(Cl)c(Cl)c1Cc1c(O)c(Cl)cc(Cl)c1Cl` [Compound 13, hexachlorophene], the IC50 [4] is reported as 34 ± 10 µM, the Ki (Hst2 [2]; with respect to NAD+ (varied 5-80 μM), acetyl-lysine substrate 100 μM) is reported as 3.9 ± 0.7 µM and the Ki (Hst2 [2]; with respect to acetyl-lysine substrate (varied 3-50 μM), NAD+ 160 μM) is reported as 2.5 ± 1 µM. For the same compound, the “Inhibition Mechanism” value (Hst2 [2]; substrate NAD+) was “fully non-competitive inhibition model; also recorded: NC (full)”, the “Inhibition Mechanism” value (Hst2 [2]; substrate acetyl-lysine) was “fully mixed inhibition model; also recorded: Mixed (full)” and the α (Hst2 [2]; substrate acetyl-lysine) was 13.4. It also gave an IC50 (Hst2 [5]) of 12.5 ± 0.6 µM.

In the case of `COCC#CC1c2cc(O)c(OC)cc2CCN1C` (centres unmarked) [Compound 14a, 6-Methoxy-1-(3-methoxy-prop-1-ynyl)-2-methyl-1,2,3,4-tetrahydro-isoquinolin-7-ol], the “inhibition of human SIRT3 (in words)” value (human SIRT3) is reported as “only weak inhibitory activity”, the “inhibition of human SIRT2 (in words)” value (human SIRT2) is reported as “only weak inhibitory activity” and the “Inhibition Mechanism” value (Hst2 [2]; substrate NAD+) is reported as “fully mixed inhibition model; also recorded: Mixed (full)”. For the same compound, the α (Hst2 [2]; substrate NAD+) was 2.6 and the “Inhibition Mechanism” value (Hst2 [2]; substrate acetyl-lysine) was “fully non-competitive inhibition model; also recorded: NC (full)”.

`COCC#CC1c2cc(O)c(OC)cc2CCN1Cc1ccc(OC)cc1` (centres unmarked) [Compound 14b] showed an activity at 50 µM (Hst2 [1]) of 92% and an activity at 500 µM (Hst2 [1]) of 2%.

`C[S+]([O-])CCC(C(=O)O)N1C(=O)c2ccccc2C1=O` (centres unmarked) [Compound 00032] was tested, and the “IC50 (Table 5, scaffold 12 analogs, Hst2)” value (Hst2 [5]) was “No inhibition”.

For `CC(C)C(=O)CCN1C(=O)c2ccccc2C1=O` [Compound 04265], the “IC50 (Table 5, scaffold 12 analogs, Hst2)” value (Hst2 [5]) was “No inhibition”.

In the case of `O=C(O)CCN1C(=O)c2cc(Cl)c(Cl)cc2C1=O` [Compound 39008], the “IC50 (Table 5, scaffold 12 analogs, Hst2)” value (Hst2 [5]) is reported as “No inhibition”.

For `Nc1ccc2c(c1)C(=O)N(CCC(=O)O)C2` [Compound 42071], the “IC50 (Table 5, scaffold 12 analogs, Hst2)” value (Hst2 [5]) was “No inhibition”.

`O=C(O)CCCN1C(=O)c2ccccc2C1=O` [Compound 47032] was tested, and the “IC50 (Table 5, scaffold 12 analogs, Hst2)” value (Hst2 [5]) was “No inhibition”.

In the case of `O=C(O)CCN1C(=O)c2ccc(-c3nc4ccccc4c(=O)o3)cc2C1=O` [Compound 47054], the “IC50 (Table 5, scaffold 12 analogs, Hst2)” value (Hst2 [5]) is reported as “No inhibition”.

With `O=C1c2ccccc2C(=O)N1CCBr` [Compound 91032] the “IC50 (Table 5, scaffold 12 analogs, Hst2)” value (Hst2 [5]) was “No inhibition”.

In the case of `Cc1cc(Cc2cc(C)c(O)c(C)c2)cc(C)c1O` [Compound 97252], the “inhibition of Hst2 deacetylation by scaffold analogs (in words)” value (“inhibition … by scaffold analogs (in words)” below) (Hst2 [1]) is reported as “most inhibitory activity”.

`Cc1cccc(OCC(=O)Oc2ccc3c(C)cc(=O)oc3c2)c1` [Compound 5140108] was tested, and the “inhibition … by scaffold analogs (in words)” value (Hst2 [1]) was “showed some deacetylase inhibition”.

For `CCc1ccc(OCCCC(=O)Oc2ccc3c(C)cc(=O)oc3c2)cc1` [Compound 6802623], the “inhibition … by scaffold analogs (in words)” value (Hst2 [1]) was “significantly reduced potency”.

With `COc1ccc(OCCCC(=O)Oc2ccc3c(c2)CCC3)cc1` [Compound 6978945] the “inhibition … by scaffold analogs (in words)” value (Hst2 [1]) was “significantly reduced potency”.

With `Cc1ccc(OCCCC(=O)Oc2ccc3c(c2)CCC3)c(C)c1` [Compound 7985301] the “inhibition … by scaffold analogs (in words)” value (Hst2 [1]) was “significantly reduced potency”.
